One series has as its target T1, ERa (ESR1) (Homo sapiens, UniProt P03372).
T1 construct: expressed in transfected cells; host or cells: HEK293
In words: NCGC_ERalpha_Antagonist: GAL4 BLAM Reporter gene assay: ERa. Type of series: cell-based. The following applies: antagonist mode; scale not given, looks like -log10 of molar active concentration; 0 = no activity. For orientation: A reporter such as luciferase makes a cellular process visible.

The next series addresses T2, PPARg (PPARG) (Homo sapiens, UniProt P37231).
T2 sequence (P37231 1-505): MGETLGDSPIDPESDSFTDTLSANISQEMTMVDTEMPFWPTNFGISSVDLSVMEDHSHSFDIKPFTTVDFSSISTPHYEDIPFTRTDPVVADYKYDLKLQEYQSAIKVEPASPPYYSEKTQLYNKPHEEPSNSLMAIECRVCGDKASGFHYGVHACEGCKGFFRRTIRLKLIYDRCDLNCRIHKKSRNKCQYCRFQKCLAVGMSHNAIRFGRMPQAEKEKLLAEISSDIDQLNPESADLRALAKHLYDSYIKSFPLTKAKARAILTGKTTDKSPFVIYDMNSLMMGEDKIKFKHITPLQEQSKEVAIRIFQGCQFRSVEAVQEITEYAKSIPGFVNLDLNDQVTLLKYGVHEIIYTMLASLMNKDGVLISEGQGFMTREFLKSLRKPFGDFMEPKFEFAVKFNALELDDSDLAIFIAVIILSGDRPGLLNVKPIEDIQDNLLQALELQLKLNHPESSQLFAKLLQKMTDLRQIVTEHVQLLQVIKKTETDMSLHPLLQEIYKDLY
In words: NVS_NR_hPPARg: Human PPARg Fluorescent Ligand (cell-free HTS). Type of series: binding. Conditions: scale not given, looks like -log10 of molar active concentration, 0 = no activity. The source says:
(§1) These are a collection of biochemical assays measuring binding constants and enzyme inhibition values. Chemicals were initially screened at a single concentration in duplicate wells at a concentration of 10 [drawing 63] M for cytochrome P-450 assays and 25 [drawing 64] M for all others. […] These assays were run by Caliper Life Sciences (Hanover, MD) under contract to EPA. Short assay descriptions are available at: http://www.caliperls.com/products/contract-research/in-vitro/.
(§2) Cell-free HTS Assays: A collection of biochemical assays measuring binding constants and enzyme inhibition values. […] These assays were run by Caliper Life Sciences (Hanover, MD) under contract to EPA. Short assay descriptions are available at http://www.caliperls.com/products/contract-research/in-vitro/. Values for all endpoints were imported into GeneData Screener (Basel, Switzerland) and normalised to solvent controls from the same plate as the tested compounds and expressed as percent of neutral control. Concentration-response curves were fit in GeneData Screener (Basel, Switzerland) Condeseo module using the Hill equation and AC50 values were determined. […] Detailed description of the methods, data and analysis methods for this dataset are described in a separate publication.

A further series deals with CYP3A4. In words: CLZD_CYP3A4: Change in expression of CYP3A4 (primary human hepatocytes). The format is cell-based. Conditions: 24 hr, scale not given, looks like -log10 of molar active concentration, 0 = no activity. The method in brief:
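Cultured primary human hepatocytes treated with chemicals for 6, 24 or 48 hr across five concentrations spanning 0.004-40 µM, then transcript level measured by quantitative nuclease protection in a multiplexed format.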

Another series concerns HMGCS2. Briefly: CLZD_HMGCS2: Change in expression of HMGCS2 (primary human hepatocytes). Conditions: 24 hr, scale not given, looks like -log10 of molar active concentration, 0 = no activity. Type of series: cell-based. As to the method:
This is a collection of multiplexed gene expression assays focused on Phase I and II xenobiotic metabolizing enzymes and transporters. Human primary cell cultures were treated with chemicals at 5 concentrations (0.004-40 [drawing 42] M) for 6, 24 and 48 hr. Concentration- and time-response profiles of chemicals were measured by the expression of key nuclear receptor target genes, activities of CYP1A enzymes (EROD), and cell morphology. Fourteen gene targets were monitored by quantitative nuclease protection assay including: six representative cytochrome P-450 genes, four hepatic transporters, three Phase II conjugating enzymes, and one endogenous metabolism gene involved in cholesterol synthesis. The target genes associated with nuclear receptor pathways are as follows: [drawing 43] and [drawing 44] with [drawing 45]; [drawing 46] , [drawing 47] , [drawing 48] , [drawing 49] , [drawing 50] and [drawing 51] with [drawing 52]; [drawing 53] , [drawing 54] , [drawing 55] and [drawing 56] with [drawing 57]; [drawing 58] with [drawing 59]; and [drawing 60] with [drawing 61] . Assays were run in primary human hepatocyte cultures by CellzDirect Invitrogen Inc. (Durham, NC), in collaboration with EPA.
Multiplexed Gene Expression in Human Primary Hepatocytes: This is a collection of multiplexed gene expression assays focused on Phase I and II metabolic enzymes and transporters. […] Fourteen gene targets were monitored by quantitative nuclease protection assay: six representative cytochrome P450 genes, four hepatic transporters, three Phase II conjugating enzymes, and one endogenous metabolism gene involved in cholesterol synthesis. Cells were exposed at 5 concentrations (0.004-40 µM) for 6, 24 or 48 hr. Gene targets are sentinels for five nuclear receptor signaling pathways: AhR, CAR, PXR, FXR, and PPARα. All gene are associated with nuclear receptor pathways: CYP1A1 and CYP1A2 with AHR; ABCB1, ABCG2, CYP2B6, CYP2C9, CYP2C19 and UGT1A1 with CAR; CYP3A4, GSTA2, SLCO1B1 and SULT2A1 with PXR; HMGCS2 with PPARA; and ABCB11 with FXR. […] Detailed description of the methods, data and analysis methods for this dataset will be presented in a separate publication.

The next series deals with T3, PPARa (PPARA) (Homo sapiens, UniProt Q07869).
T3 sequence (Q07869 1-468): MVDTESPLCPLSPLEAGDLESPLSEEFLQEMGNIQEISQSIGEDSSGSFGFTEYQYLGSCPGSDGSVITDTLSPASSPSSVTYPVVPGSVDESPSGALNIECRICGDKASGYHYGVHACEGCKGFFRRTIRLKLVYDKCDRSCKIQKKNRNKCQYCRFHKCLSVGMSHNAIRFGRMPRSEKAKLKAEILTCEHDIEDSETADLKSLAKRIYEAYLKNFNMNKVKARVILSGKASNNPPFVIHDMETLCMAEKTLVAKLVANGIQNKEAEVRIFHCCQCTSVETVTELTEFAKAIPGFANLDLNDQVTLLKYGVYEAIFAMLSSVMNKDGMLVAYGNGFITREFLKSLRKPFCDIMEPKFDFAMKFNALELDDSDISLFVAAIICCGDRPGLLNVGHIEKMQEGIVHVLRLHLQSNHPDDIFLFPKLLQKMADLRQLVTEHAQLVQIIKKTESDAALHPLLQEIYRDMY
Briefly: NVS_NR_hPPARa: Human PPARa Fluormone Pan-PPAR green (cell-free HTS). Type of series: binding. Conditions: scale not given, looks like -log10 of molar active concentration, 0 = no activity.
Excerpt: as §1, §2

T1 sequence (P03372 whole entry): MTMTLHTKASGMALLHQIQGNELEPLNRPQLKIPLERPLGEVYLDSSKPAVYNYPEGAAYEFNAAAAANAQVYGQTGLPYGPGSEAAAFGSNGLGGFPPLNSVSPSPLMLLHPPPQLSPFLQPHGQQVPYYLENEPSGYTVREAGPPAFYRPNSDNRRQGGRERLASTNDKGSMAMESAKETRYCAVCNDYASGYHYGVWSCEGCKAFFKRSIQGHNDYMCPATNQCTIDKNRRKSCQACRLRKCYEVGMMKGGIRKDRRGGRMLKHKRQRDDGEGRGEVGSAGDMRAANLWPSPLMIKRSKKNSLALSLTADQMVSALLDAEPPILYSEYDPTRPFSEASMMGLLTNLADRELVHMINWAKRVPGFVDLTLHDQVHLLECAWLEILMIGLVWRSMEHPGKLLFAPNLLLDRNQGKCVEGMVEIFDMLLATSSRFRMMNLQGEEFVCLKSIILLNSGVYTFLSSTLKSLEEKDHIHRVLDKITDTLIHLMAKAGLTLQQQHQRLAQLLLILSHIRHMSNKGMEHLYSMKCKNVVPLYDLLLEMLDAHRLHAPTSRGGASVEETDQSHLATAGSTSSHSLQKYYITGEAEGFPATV

Compound `CC1=C(C(=O)Nc2ccccc2)SCCO1` [r53] gave an NCGC_ERalpha_Antagonist at ERa (ESR1) of 0. At PPARg (PPARG), this compound came in with an NVS_NR_hPPARg of 0. In addition, the CLZD_CYP3A4_24 in the series on CYP3A4 came out at 5.078. Further, the CLZD_HMGCS2_24 in the series with HMGCS2 is 0. In addition, the NVS_NR_hPPARa at PPARa (PPARA) amounted to 0.
On to `CCOC(=O)C(Cl)Cc1cc(-n2nc(C)n(C(F)F)c2=O)c(F)cc1Cl` (stereo not shown) [r54], for which the NCGC_ERalpha_Antagonist on ERa (ESR1) was 0. The same compound showed an NVS_NR_hPPARg on PPARg (PPARG) of 0. In addition, the CLZD_CYP3A4_24 in the series on CYP3A4 is 4.919. Also, the CLZD_HMGCS2_24 in the series with HMGCS2 is reported as 0. The compound further registered an NVS_NR_hPPARa on PPARa (PPARA) of 0.
As to `Nc1cnn(-c2ccccc2)c(=O)c1Cl` [r56], the NCGC_ERalpha_Antagonist at ERa (ESR1) is 0. At PPARg (PPARG), this compound returned an NVS_NR_hPPARg of 0. Also, the CLZD_CYP3A4_24 in the series on CYP3A4 worked out at 0. In the series with HMGCS2, this compound showed a CLZD_HMGCS2_24 of 0. This compound yielded an NVS_NR_hPPARa on PPARa (PPARA) of 0.
`COc1cc(Cl)c(OC)cc1Cl` [r57] showed an NCGC_ERalpha_Antagonist at ERa (ESR1) of 0. The NVS_NR_hPPARg on PPARg (PPARG) came to 0. The compound further returned a CLZD_CYP3A4_24 with CYP3A4 of 0. The same compound registered a CLZD_HMGCS2_24 with HMGCS2 of 0. At PPARa (PPARA), this compound returned an NVS_NR_hPPARa of 0.
In turn, `N#Cc1c(Cl)c(Cl)c(Cl)c(C#N)c1Cl` [r58] gave an NCGC_ERalpha_Antagonist at ERa (ESR1) of 0. The compound further gave an NVS_NR_hPPARg at PPARg (PPARG) of 6.265. The same compound displayed a CLZD_CYP3A4_24 with CYP3A4 of 0. Besides, the CLZD_HMGCS2_24 with HMGCS2 is 0. On PPARa (PPARA), the NVS_NR_hPPARa is 0.
Turning to `CC(C)OC(=O)Nc1cccc(Cl)c1` [r59], at ERa (ESR1), the NCGC_ERalpha_Antagonist came to 0. This compound also returned an NVS_NR_hPPARg at PPARg (PPARG) of 0. Besides, in the series on CYP3A4, the CLZD_CYP3A4_24 was 4.864. Also, in the series on HMGCS2, the CLZD_HMGCS2_24 is recorded as 0. The compound also returned an NVS_NR_hPPARa at PPARa (PPARA) of 0.
For `COc1nc(C)nc(NC(=O)NS(=O)(=O)c2ccccc2Cl)n1` [r62], on ERa (ESR1), the NCGC_ERalpha_Antagonist is 0. Moreover, the NVS_NR_hPPARg on PPARg (PPARG) is listed as 0. Further, the CLZD_CYP3A4_24 with CYP3A4 amounted to 0. The same compound yielded a CLZD_HMGCS2_24 with HMGCS2 of 0. This compound also showed an NVS_NR_hPPARa on PPARa (PPARA) of 0.
In the case of `COc1nc(C)nc(NC(=O)NS(=O)(=O)c2ccccc2Cl)n1` [r63], the NCGC_ERalpha_Antagonist on ERa (ESR1) came to 0. The NVS_NR_hPPARg at PPARg (PPARG) is reported as 0. In the series with CYP3A4, this compound registered a CLZD_CYP3A4_24 of 0. This compound gave a CLZD_HMGCS2_24 with HMGCS2 of 0. Besides, the NVS_NR_hPPARa at PPARa (PPARA) is on record as 0.

The record behind these values is article PMC3038857, “Using Nuclear Receptor Activity to Stratify Hepatocarcinogens” (PLoS ONE, 2011).
